According to patent US4992449A, “7-(substituted)cycloalkylamino-1 -(substituted)-6-fluoro-1,4-dihydro-4-oxo-3-quinolinecarboxylic acids” (American Cyanamid Company, priority 1990, dated 1991):
Values after ≈ are worked out from the molar mass of the structure shown.

What was measured:
Assay in all cases: In vitro antibacterial MIC, agar plate dilution
Type in all cases: cell-based
[1] = test system: Citrobacter diversus K 82-24; settings: Citrobacter koseri, K8224, Mueller-Hinton agar, 10^4 CFU, 18 hours, 35° C.
Protocol: (§1) The in vitro antimicrobial spectrum of the compounds of this invention were determined by the agar plate dilution method with Mueller-Hinton agar and an inoculum of each test organism of approximately 10^4 colony forming units delivered by the Steers replicating device. The minimal inhibitory concentration (MIC) in mcg/ml is defined as the lowest concentration of test compound that inhibited visible growth after 18 hours incubation at 35° C. Results are given in Table I, with the test compounds identified by the number of their hereinafter described examples

[2] = test system: Enterobacter cloacae K 84-10; settings: K8410, Mueller-Hinton agar, 10^4 CFU, 18 hours, 35° C.
Protocol: as §1

[3] = test system: Enterobacter cloacae MOR 84-30; settings: MOR8430, Mueller-Hinton agar, 10^4 CFU, 18 hours, 35° C.
Protocol: as §1

[4] = test system: Enterobacter cloacae VGH 84-39; settings: VGH8439, Mueller-Hinton agar, 10^4 CFU, 18 hours, 35° C.
Protocol: as §1

[5] = test system: Escherichia coli ATCC 25922; settings: Escherichia coli, ATCC25922, 18 h, Table I; Escherichia coli ATCC 25922; Mueller-Hinton agar, 10^4 CFU, 18 hours, 35° C.; read-out: MIC
Protocol: as §1

[6] = test system: Escherichia coli CMC 84-50; settings: CMC8450, Mueller-Hinton agar, 10^4 CFU, 18 hours, 35° C.
Protocol: as §1

[7] = test system: Escherichia coli MOR 84-20; settings: MOR8420, Mueller-Hinton agar, 10^4 CFU, 18 hours, 35° C.
Protocol: as §1

[8] = test system: Escherichia coli VGH 84-19; settings: VGH8419, Mueller-Hinton agar, 10^4 CFU, 18 hours, 35° C.
Protocol: as §1

[9] = test system: Klebsiella neumoniae CMC 84-31; settings: CMC8431, Mueller-Hinton agar, 10^4 CFU, 18 hours, 35° C.
Protocol: as §1

[10] = test system: Klebsiella neumoniae IO 83-5; settings: IO835, Mueller-Hinton agar, 10^4 CFU, 18 hours, 35° C.
Protocol: as §1

[11] = test system: Klebsiella neumoniae MOR 84-24; settings: MOR8424, Mueller-Hinton agar, 10^4 CFU, 18 hours, 35° C.
Protocol: as §1

[12] = test system: Moranella morganii CMC 84-38; settings: Mueller-Hinton agar, 10^4 CFU, 18 hours, 35° C.
Protocol: as §1

[13] = test system: Moranella morganii VGH 84-12; settings: Mueller-Hinton agar, 10^4 CFU, 18 hours, 35° C.
Protocol: as §1

[14] = test system: Morganella morganii MOR 84-45; settings: MOR8445, Mueller-Hinton agar, 10^4 CFU, 18 hours, 35° C.
Protocol: as §1

[15] = test system: Proteus rettgeri IO 83-21; settings: Providencia rettgeri, IO8321, Mueller-Hinton agar, 10^4 CFU, 18 hours, 35° C.
Protocol: as §1

[16] = test system: Providencia stuartii CMC 83-3; settings: CMC833, Mueller-Hinton agar, 10^4 CFU, 18 hours, 35° C.
Protocol: as §1

[17] = test system: Pseudomonas aeruginosa CMC 83-20; settings: CMC8320, Mueller-Hinton agar, 10^4 CFU, 18 hours, 35° C.
Protocol: as §1

[18] = test system: Pseudomonas aeruginosa VGH 84-16; settings: VGH8416, Mueller-Hinton agar, 10^4 CFU, 18 hours, 35° C.
Protocol: as §1

[19] = test system: Pseudomonas aeruginosa VGH 84-3; settings: VGH843, Mueller-Hinton agar, 10^4 CFU, 18 hours, 35° C.
Protocol: as §1

[20] = test system: Serratia marcescens CMC 83-74; settings: CMC8374, Mueller-Hinton agar, 10^4 CFU, 18 hours, 35° C.
Protocol: as §1

[21] = test system: Serratia marcescens IO 83-63; settings: IO8363, Mueller-Hinton agar, 10^4 CFU, 18 hours, 35° C.
Protocol: as §1

[22] = test system: Serratia marcescens MOR 84-41; settings: MOR8441, Mueller-Hinton agar, 10^4 CFU, 18 hours, 35° C.
Protocol: as §1

[23] = test system: Staphylococcus aureus ATCC 29213; settings: Staphylococcus aureus, ATCC29213, 18 h, Table I, Mueller-Hinton agar, 10^4 CFU, 18 hours, 35° C., read-out: MIC
Protocol: as §1

[24] = test system: Staphylococcus aureus CMC 83-131; settings: CMC83131, Mueller-Hinton agar, 10^4 CFU, 18 hours, 35° C.
Protocol: as §1

[25] = test system: Staphylococcus aureus K 82-26; settings: K8226, Mueller-Hinton agar, 10^4 CFU, 18 hours, 35° C.
Protocol: as §1

[26] = test system: Staphylococcus aureus VGH 84-47; settings: VGH8447, Mueller-Hinton agar, 10^4 CFU, 18 hours, 35° C.
Protocol: as §1

[27] = test system: Staphylococcus faecalis CMC 83-120; settings: CMC83120, Mueller-Hinton agar, 10^4 CFU, 18 hours, 35° C.
Protocol: as §1

[28] = test system: Staphylococcus faecalis VGH 84-69; settings: VGH8469, Mueller-Hinton agar, 10^4 CFU, 18 hours, 35° C.
Protocol: as §1

[29] = test system: Streptococcus faecalis UCI 85-30; settings: Enterococcus faecalis, UCI8530, Mueller-Hinton agar, 10^4 CFU, 18 hours, 35° C.
Protocol: as §1

| MIC [1] | MIC [2] | MIC [3] | MIC [4] | MIC [5] | MIC [6] | MIC [7] | MIC [8] | MIC [9] | MIC [10] | MIC [11] | MIC [12] | MIC [13] | MIC [14] | MIC [15] | MIC [16] | MIC [17] | MIC [18] | MIC [19] | MIC [20] | Structure (SMILES) | further results |
| --- | --- | --- | --- | --- | --- | --- | --- | --- | --- | --- | --- | --- | --- | --- | --- | --- | --- | --- | --- | --- | --- |
| 0.25 µg/mL (≈ 0.696 µM) | 0.5 µg/mL (≈ 1.39 µM) | 1 µg/mL (≈ 2.78 µM) | 0.5 µg/mL (≈ 1.39 µM) | 0.25 µg/mL (≈ 0.696 µM) | 1 µg/mL (≈ 2.78 µM) | 0.25 µg/mL (≈ 0.696 µM) | 0.25 µg/mL (≈ 0.696 µM) | 1 µg/mL (≈ 2.78 µM) | 1 µg/mL (≈ 2.78 µM) | 1 µg/mL (≈ 2.78 µM) | 1 µg/mL (≈ 2.78 µM) | 1 µg/mL (≈ 2.78 µM) | 0.5 µg/mL (≈ 1.39 µM) | 2 µg/mL (≈ 5.56 µM) | > 16 µg/mL | 4 µg/mL (≈ 11.1 µM) | 8 µg/mL (≈ 22.3 µM) | > 16 µg/mL | 16 µg/mL (≈ 44.5 µM) | N[C@H]1CCCC[C@H]1Nc1cc2c(cc1F)c(=O)c(C(=O)O)cn2C1CC1 (relative stereo) [Example 1, Cis-7-[(2-Aminocyclohexyl)amino]1-cyclopropyl-6-fluoro-1,4-dihydro-4-oxo-3-quinolinecarboxylic acid] | MIC [21]: 1 µg/mL (≈ 2.78 µM); MIC [22]: 0.5 µg/mL (≈ 1.39 µM); MIC [23]: 2 µg/mL (≈ 5.56 µM); MIC [24]: 4 µg/mL (≈ 11.1 µM); MIC [25]: 2 µg/mL (≈ 5.56 µM); MIC [26]: 2 µg/mL (≈ 5.56 µM); MIC [27]: 4 µg/mL (≈ 11.1 µM); MIC [28]: 4 µg/mL (≈ 11.1 µM); MIC [29]: 4 µg/mL (≈ 11.1 µM) |
| 0.5 µg/mL (≈ 1.45 µM) | 1 µg/mL (≈ 2.9 µM) | 2 µg/mL (≈ 5.79 µM) | 1 µg/mL (≈ 2.9 µM) | 0.5 µg/mL (≈ 1.45 µM) | 0.5 µg/mL (≈ 1.45 µM) | 0.5 µg/mL (≈ 1.45 µM) | 1 µg/mL (≈ 2.9 µM) | 2 µg/mL (≈ 5.79 µM) | 2 µg/mL (≈ 5.79 µM) | 1 µg/mL (≈ 2.9 µM) | 1 µg/mL (≈ 2.9 µM) | 4 µg/mL (≈ 11.6 µM) | 2 µg/mL (≈ 5.79 µM) | 4 µg/mL (≈ 11.6 µM) | > 16 µg/mL | 8 µg/mL (≈ 23.2 µM) | 16 µg/mL (≈ 46.3 µM) | > 16 µg/mL | > 16 µg/mL | N[C@H]1CCC[C@H]1Nc1cc2c(cc1F)c(=O)c(C(=O)O)cn2C1CC1 (relative stereo) [Example 2, Cis-7-[(2-Aminocyclopentyl)amino]-1-cyclopropyl-6-fluoro-1,4-dihydro-4-oxo-3-quinolinecarboxylic acid] | MIC [21]: 2 µg/mL (≈ 5.79 µM); MIC [22]: 1 µg/mL (≈ 2.9 µM); MIC [23]: 4 µg/mL (≈ 11.6 µM); MIC [24]: > 16 µg/mL; MIC [25]: 4 µg/mL (≈ 11.6 µM); MIC [26]: 4 µg/mL (≈ 11.6 µM); MIC [27]: > 16 µg/mL; MIC [28]: > 16 µg/mL; MIC [29]: > 16 µg/mL |
